Each structure is given as a SMILES string. In brackets after ≈: the same amount, converted by molar mass. Where two headings read alike, the source gives them in different places.

Common to all, as to type: cell-based
A short description of data set [1]: inhibition of DNA synthesis in cells from ovaries of the Chinese hamster (CHO-KI), genotoxic potential, fluorophotometric. The settings on record: hamster, cho-k1 cells, measure of the genotoxic potential, read-out: ID50 (concentration at which DNA synthesis in CHO-KI cells is inhibited by 50%). From the text:
(§1) The following Tables 1 and 2 show the minimum inhibitory concentrations as a measure of the antibacterial activity and the ID50 values as a measure of the genotoxic potential of a substance both for compounds according to the invention and for reference compounds from the prior art (EP 520 240). The compounds according to the invention are distinguished in particular by the fact that they have lower interactions with mammalian DNA compared with the compounds according to the prior art. The ID50 is understood as meaning the concentration of a substance at which DNA synthesis in cells from ovaries of the Chinese hamster (CHO-KI) is inhibited by 50%. This value is determined after incubation of the corresponding substances in decreasing dilution stages over defined periods of time. For this, the DNA synthesis in CHO-KI cells is determined in comparison with controls by means of fluorophotometric methods.

The subject of data set [2] is E. coli Neumann. Nature of the data set: minimum inhibitory concentration (MIC), series dilution method on Iso-Sensitest agar. The settings on record: 37° C., about 20 hours. The method, then: (§2) The minimum inhibitory concentrations (MIC) were determined by a series dilution method on Iso-Sensitest agar (Oxoid). For each test substance, a series of agar plates each comprising concentrations of the active compound decreasing by double dilution in each case was prepared. The agar plates were inoculated with a multipoint inoculator (Denley). Overnight cultures of the pathogens which had been diluted beforehand such that each inoculation point comprised about 10^4 colony-forming particles were used for the inoculation. The inoculation agar plates were incubated at 37° C. and the germ growth was read off after about 20 hours. The MIC value (μg/ml) indicated the lowest active compound concentration at which no growth was detectable with the naked eye.

The subject of data set [3] is Staph. aureus 133. The data set is described as above. The settings on record: 37° C., about 20 hours. On the procedure: as §2
The subject of data set [4] is Bac. fragilis ES 25. The data set is described as above. The settings on record: about 20 hours. On the procedure:
as §2

The subject of data set [5] is Ps. aeruginosa Walter. The description is as above. The settings on record: 37° C., about 20 hours. On the procedure:
as §2

Data set [6] deals with Staph. aureus ICB 25701. Described as above. The settings on record: about 20 hours. On the procedure: as §2
The test system of data set [7] is CHO-KI cells. As to the kind of experiment: inhibition of DNA synthesis in cells from ovaries of the Chinese hamster (CHO-KI), genotoxic potential, fluorophotometric. The settings on record: measure of the genotoxic potential.
Excerpt: as §1

The mark [8] stands for this setting: Escherichia coli, read-out: MIC.
Setting [9] is: Staphylococcus aureus, read-out: MIC.
The mark [10] stands for this setting: Bacteroides fragilis, ES25, 37° C., read-out: MIC.
[11] abbreviates: Pseudomonas aeruginosa, read-out: MIC.
The mark [12] stands for this setting: Staphylococcus aureus, ICB25701, 37° C., read-out: MIC.

The term MIC denotes the lowest concentration found to suppress growth. With `NC12C=CC(CC1)C1CN(c3c(F)cc4c(=O)c(C(=O)O)cn(C5CC5)c4c3C(F)(F)F)CC12` (centres unmarked) [Example 6, 7-(1-Amino-4-aza-tricyclo[5.2.2.0^2,6]undec-8-en-4-yl)-1-cyclopropyl-6-fluoro-1,4-dihydro-4-oxo-8-trifluoromethyl-3-quinolinecarboxylic acid], in data set [1], the IC50 was determined as 10 µg/mL (≈ 20.9 µM). Moreover, the MIC came to 0.06 µg/mL (≈ 0.126 µM) in data set [2] (setting [8]); 0.015 µg/mL (≈ 0.0314 µM) in data set [3] (setting [9]); 0.25 µg/mL (≈ 0.524 µM) in data set [4] (setting [10]); 4 µg/mL (≈ 8.38 µM) in data set [5] (setting [11]); 0.125 µg/mL (≈ 0.262 µM) in data set [6] (setting [12]).

Regarding `COc1c(N2CC3C(C)C=CC(N)C3C2)c(F)cc2c(=O)c(C(=O)O)cn(C3CC3)c12` (centres unmarked) [Ref. 2, 7(4-amino-7-methyl-1,3,3a,4,7,7a-hexahydro-isoindol-2-y1)-1-cyclopropyl-6 fluoro-1,4-dihydro-8-methoxy-4-oxo-3-quinolinecarboxylic acid, reference compound], the MIC in data set [2] (setting [8]) is 0.015 µg/mL (≈ 0.0351 µM); in data set [3] (setting [9]), 0.015 µg/mL (≈ 0.0351 µM); in data set [4] (setting [10]), 0.25 µg/mL (≈ 0.585 µM); in data set [5] (setting [11]) it was 1 µg/mL (≈ 2.34 µM); in data set [6] (setting [12]), 0.015 µg/mL (≈ 0.0351 µM).

With `NC12CCC(CC1)C1CN(c3c(F)cc4c(=O)c(C(=O)O)cn(C5CC5)c4c3Cl)CC12` (centres unmarked) [Example 19, 7-(1-amino-4-azatricyclo-[5.2.2.0^2,6]undec-4-yl)-8-chloro-1-cyclopropyl-6-fluoro-1,4-dihydro-4-oxo-3-quinolinecarboxylic acid], the IC50 in data set [1] was 4 µg/mL (≈ 8.97 µM). The MIC in data set [2] (setting [8]) was 0.03 µg/mL (≈ 0.0673 µM); in data set [3] (setting [9]), 0.015 µg/mL (≈ 0.0336 µM); in data set [4] (setting [10]), 0.125 µg/mL (≈ 0.28 µM); in data set [5] (setting [11]) it was 1 µg/mL (≈ 2.24 µM); in data set [6] (setting [12]), 0.06 µg/mL (≈ 0.135 µM).

As to `NC12C=CC(CC1)C1CN(c3cc4c(cc3F)c(=O)c(C(=O)O)cn4C3CC3)CC12` (centres unmarked) [Example 1, 7-(1-amino-4-aza-tricyclo[5.2.2.0^2,6]undec-8-en-4-yl)-1-cyclopropyl-6-fluoro-1,4-dihydro-4-oxo-3-quinolinecarboxylic acid], in data set [1], the IC50 was 24 µg/mL (≈ 58.6 µM). The MIC in data set [2] (setting [8]) worked out at 0.125 µg/mL (≈ 0.305 µM); in data set [3] (setting [9]) it was 0.062 µg/mL (≈ 0.151 µM); in data set [4] (setting [10]), 16 µg/mL (≈ 39.1 µM); in data set [5] (setting [11]), 8 µg/mL (≈ 19.5 µM); in data set [6] (setting [12]), 8 µg/mL (≈ 19.5 µM).

For the molecule `NC12CCC(CC1)C1CN(c3c(F)cc4c(=O)c(C(=O)O)cn(C5CC5)c4c3F)CC12` (centres unmarked) [Example 18, 7-(1-amino-4-azatricyclo[5.2.2.0^2,6]undec-4-yl)-1-cyclopropyl-6,8-difluoro-1,4-dihydro-4-oxo-3-quinolinecarboxylic acid], the IC50 in data set [1] came out at 1 µg/mL (≈ 2.33 µM). Further, the MIC was 0.03 µg/mL (≈ 0.0699 µM) in data set [2] (setting [8]); 0.015 µg/mL (≈ 0.0349 µM) in data set [3] (setting [9]); 1 µg/mL (≈ 2.33 µM) in data set [4] (setting [10]); 2 µg/mL (≈ 4.66 µM) in data set [5] (setting [11]); 0.25 µg/mL (≈ 0.582 µM) in data set [6] (setting [12]).

`NC12C=CC(CC1)C1CN(c3c(F)cc4c(=O)c(C(=O)O)cn(C5CC5)c4c3Cl)CC12` (centres unmarked) [Example 3, 7-(1-Amino-4-aza-tricyclo[5.2.2.0^2,6]undec-8-en-4-yl)-8-chloro-1-cyclopropyl-6-fluoro-1,4-dihydro-4-oxo-3-quinoline-carboxylic acid]: the IC50 in data set [1] is 4 µg/mL (≈ 9.01 µM). For the same molecule, the MIC came to 0.015 µg/mL (≈ 0.0338 µM) in data set [2] (setting [8]); 0.015 µg/mL (≈ 0.0338 µM) in data set [3] (setting [9]); 0.125 µg/mL (≈ 0.282 µM) in data set [4] (setting [10]); 0.5 µg/mL (≈ 1.13 µM) in data set [5] (setting [11]); 0.031 µg/mL (≈ 0.0698 µM) in data set [6] (setting [12]).

Regarding `CNC1C=CC(C)C2CN(c3c(F)cc4c(=O)c(C(=O)O)cn(C5CC5)c4c3Cl)CC12` (centres unmarked) [Ref. 4, 7(7-methyl-4-methylamino-1,3,3a,4,7,7a-hexahydro-isoindol-2-yl)-8-chloro- -cyclopropyl-6-fluoro-1,4-dihydro-4-oxo-3-quinolinecarboxylic acid, reference compound], the IC50 in data set [1] was 0.1 µg/mL (≈ 0.224 µM). Also, the MIC was determined as 0.03 µg/mL (≈ 0.0673 µM) in data set [2] (setting [8]), 0.015 µg/mL (≈ 0.0336 µM) in data set [3] (setting [9]), 0.5 µg/mL (≈ 1.12 µM) in data set [4] (setting [10]) and 1 µg/mL (≈ 2.24 µM) in data set [5] (setting [11]).

Regarding `COc1c(N2CC3C4C=CC(N)(CC4)C3C2)c(F)cc2c(=O)c(C(=O)O)cn(C3CC3)c12` (centres unmarked) [Example 5, 7-(1-amino-4-aza-tricyclo[5.2.2.0^2,6]undec-8-en-4-yl)-1-cyclopropyl-6-fluoro-1,4-dihydro-8-methoxy-4-oxo-3-quinolinecarboxylic acid], the IC50 in data set [1] is 8 µg/mL (≈ 18.2 µM). Besides, the MIC was determined as 0.015 µg/mL (≈ 0.0341 µM) in data set [2] (setting [8]); 0.015 µg/mL (≈ 0.0341 µM) in data set [3] (setting [9]); 0.125 µg/mL (≈ 0.284 µM) in data set [4] (setting [10]); 1 µg/mL (≈ 2.28 µM) in data set [5] (setting [11]); 0.031 µg/mL (≈ 0.0705 µM) in data set [6] (setting [12]).

Regarding `CN1COc2c(N3CC4C5CCC(N)(CC5)C4C3)c(F)c(N)c3c(=O)c(C(=O)O)cn1c23` (centres unmarked) [Example 22, 8-amino-10-(1-amino-4-azatricyclo[5.2.2.0^2,6]undecan-4-yl)-9-fluoro-3-methyl-7-oxo-2,3-dihydro-7H-pyrido[1,2,3-d,e][1,3,4]benzoxadiazine-6-carboxylic acid], the “ID50 (concentration at which DNA synthesis in CHO-KI cells is inhibited by 50%)” value in data set [7] is 8 µg/mL (≈ 18 µM). Further, the MIC in data set [2] was 0.125 µg/mL (≈ 0.282 µM); in data set [3], 0.031 µg/mL (≈ 0.0699 µM); in data set [4] (37° C.) it was 4 µg/mL (≈ 9.02 µM); in data set [5], 8 µg/mL (≈ 18 µM); in data set [6] (37° C.), 2 µg/mL (≈ 4.51 µM).

As for `CC1C=CC(N)C2CN(c3c(F)cc4c(=O)c(C(=O)O)cn(C5CC5)c4c3F)CC12` (centres unmarked) [Ref. 1, 7(4-amino-7-methyl-1,3,3a,4,7,7a-hexahydro-isoindol-2-y1)-1-cyclopropyl-6 8-difluoro-1,4-dihydro-4-oxo-3-quinolinecarboxylic acid, reference compound], the MIC in data set [2] (setting [8]) was determined as 0.015 µg/mL (≈ 0.0361 µM); in data set [3] (setting [9]), 0.015 µg/mL (≈ 0.0361 µM); in data set [4] (setting [10]) it was 0.5 µg/mL (≈ 1.2 µM); in data set [5] (setting [11]), 0.5 µg/mL (≈ 1.2 µM); in data set [6] (setting [12]) it was 0.06 µg/mL (≈ 0.144 µM).

Regarding `NC12C=CC(CC1)C1CN(c3c(F)cc4c(=O)c(C(=O)O)cn(C5CC5)c4c3F)CC12` (centres unmarked) [Example 2], in data set [1], the IC50 was determined as 1 µg/mL (≈ 2.34 µM). Further, the MIC in data set [2] (setting [8]) was determined as 0.015 µg/mL (≈ 0.0351 µM); in data set [3] (setting [9]), 0.015 µg/mL (≈ 0.0351 µM); in data set [4] (setting [10]) it was 0.5 µg/mL (≈ 1.17 µM); in data set [5] (setting [11]) it was 0.5 µg/mL (≈ 1.17 µM); in data set [6] (setting [12]) it was 0.062 µg/mL (≈ 0.145 µM).

`CC1C=CC(N)C2CN(c3c(F)cc4c(=O)c(C(=O)O)cn(C5CC5)c4c3Cl)CC12` (centres unmarked) [Ref. 3, 7(4-amino-7-methyl-1,3,3a,4,7,7a-hexahydro-isoindol-2-yl)-8-chloro-1-cycl propyl-6-fluoro-1,4-dihydro-4-oxo-3-quinolinecarboxylic acid, reference compound]: the MIC was 0.015 µg/mL (≈ 0.0347 µM) in data set [2] (setting [8]); 0.015 µg/mL (≈ 0.0347 µM) in data set [3] (setting [9]); 0.125 µg/mL (≈ 0.289 µM) in data set [4] (setting [10]); 0.5 µg/mL (≈ 1.16 µM) in data set [5] (setting [11]); 0.015 µg/mL (≈ 0.0347 µM) in data set [6] (setting [12]).

For `NC12CCC(CC1)C1CN(c3c(F)cc4c(=O)c(C(=O)O)cn(C5CC5)c4c3C(F)(F)F)CC12` (centres unmarked) [Example 21, 7-(1-amino-4-azatricyclo[5.2.2.0^2,6]undec-4-yl)-1-cyclopropyl-6-fluoro-1,4-dihydro-4-oxo-8-trifluoromethyl-3-quinolinecarboxylic acid], the IC50 in data set [1] was found to be 10 µg/mL (≈ 20.9 µM). Also, the MIC was determined as 0.015 µg/mL (≈ 0.0313 µM) in data set [2] (setting [8]); 0.015 µg/mL (≈ 0.0313 µM) in data set [3] (setting [9]); 0.125 µg/mL (≈ 0.261 µM) in data set [4] (setting [10]); 4 µg/mL (≈ 8.34 µM) in data set [5] (setting [11]); 0.125 µg/mL (≈ 0.261 µM) in data set [6] (setting [12]).

For `COc1c(N2CC3C4CCC(N)(CC4)C3C2)c(F)cc2c(=O)c(C(=O)O)cn(C3CC3)c12` (centres unmarked) [Example 20, 7-(1-amino-4-azatricyclo[5.2.2.0^2,6]undec-4-yl)-1-cyclopropyl-6-fluoro-1,4-dihydro-8-methoxy-4-oxo-3-quinolinecarboxylic acid], the IC50 in data set [1] worked out at 16 µg/mL (≈ 36.2 µM). In addition, the MIC worked out at 0.03 µg/mL (≈ 0.0679 µM) in data set [2] (setting [8]); 0.015 µg/mL (≈ 0.034 µM) in data set [3] (setting [9]); 1 µg/mL (≈ 2.26 µM) in data set [4] (setting [10]); 2 µg/mL (≈ 4.53 µM) in data set [5] (setting [11]); 0.125 µg/mL (≈ 0.283 µM) in data set [6] (setting [12]).

Source of the values: patent US5990122A, “Quinolone- and naphthyridonecarboxylic acid derivatives” (Bayer Aktiengesellschaft, priority 1994, dated 1999).
